Assay type in all cases: functional
The subject of assay [1] is Rattus norvegicus. Description: Antiinflammatory activity in Albino rat assessed as reduction of carrageenan-induced paw volume at 20 mg/kg, po administered 1 hr before carrageenan challenge measured after 1 hr (reference value: 1.925 +/- 0.1011 ml). On the technique in general: Carrageenan injected into the paw causes an acute inflammation.
The subject of assay [2] is Rattus norvegicus. Description: Antiinflammatory activity in Albino rat assessed as reduction of carrageenan-induced paw volume at 20 mg/kg, po administered 1 hr before carrageenan challenge measured after 2 hrs (reference value: 1.905 +/- 0.046 ml).
In assay [3] the test system is Rattus norvegicus. Description: Antiinflammatory activity in Albino rat assessed as reduction of carrageenan-induced paw volume at 20 mg/kg, po administered 1 hr before carrageenan challenge measured after 3 hrs (reference value: 1.63 +/- 0.059 ml).
The subject of assay [4] is Rattus norvegicus. Description: Antiinflammatory activity in Albino rat assessed as reduction of carrageenan-induced paw volume at 20 mg/kg, po administered 1 hr before carrageenan challenge measured after 4 hrs (reference value: 1.44 +/- 0.046 ml).
The subject of assay [5] is Rattus norvegicus. The experiment in a line: Antiinflammatory activity in Albino rat assessed as reduction of carrageenan-induced paw volume at 20 mg/kg, po administered 1 hr before carrageenan challenge measured after 24 hrs (reference value: 1.39 +/- 0.053 ml).
Assay [6] has as its system Rattus norvegicus. The experiment in a line: Antiinflammatory activity in Albino rat assessed as inhibition of carrageenan-induced paw volume at 20 mg/kg, po administered 1 hr before carrageenan challenge measured after 1 hr.
For assay [7], the system named is Rattus norvegicus. The experiment in a line: Antiinflammatory activity in Albino rat assessed as inhibition of carrageenan-induced paw volume at 20 mg/kg, po administered 1 hr before carrageenan challenge measured after 2 hrs.
The subject of assay [8] is Rattus norvegicus. The experiment in a line: Antiinflammatory activity in Albino rat assessed as inhibition of carrageenan-induced paw volume at 20 mg/kg, po administered 1 hr before carrageenan challenge measured after 3 hrs.
Assay [9] has as its system Rattus norvegicus. The experiment in a line: Antiinflammatory activity in Albino rat assessed as inhibition of carrageenan-induced paw volume at 20 mg/kg, po administered 1 hr before carrageenan challenge measured after 4 hrs.
Assay [10] relates to Rattus norvegicus. The experiment in a line: Antiinflammatory activity in Albino rat assessed as inhibition of carrageenan-induced paw volume at 20 mg/kg, po administered 1 hr before carrageenan challenge measured after 24 hrs.

The inhibition in vivo is the percentage by which the read-out fell short of the control. On to `Cc1ccc(C2=C(CCC(=O)O)C(c3ccco3)NC(=S)N2)cc1` (stereo not given), for which the Activity was 1.29 mL in the assay on Rattus norvegicus [1]; 1.37 mL with Rattus norvegicus [2]; 1.46 mL in the assay with Rattus norvegicus [3]; 1.38 mL with Rattus norvegicus [4]; 1.19 mL in the assay with Rattus norvegicus [5]. Also, the inhibition in vivo at 20 mg/kg was found to be 33% in the assay with Rattus norvegicus [6]; 28.1% in the assay with Rattus norvegicus [7]; 10.4% in the assay on Rattus norvegicus [8]; 4.16% with Rattus norvegicus [9]; 14.4% in the assay on Rattus norvegicus [10].
Turning to `COc1cc(C2NC(=S)NC(c3ccc(C)cc3)=C2CCC(=O)O)ccc1O` (stereo not given), the Activity stood at 1.96 mL in the assay with Rattus norvegicus [1]; 1.87 mL in the assay on Rattus norvegicus [2]; 1.79 mL in the assay on Rattus norvegicus [3]; 1.69 mL in the assay on Rattus norvegicus [4]; 1.55 mL in the assay with Rattus norvegicus [5]. Besides, the inhibition in vivo at 20 mg/kg in the assay on Rattus norvegicus [7] is 1.57%.
Consider `O=C(O)Cc1ccccc1Nc1c(Cl)cccc1Cl` [DICLOFENAC], for which the Activity in the assay on Rattus norvegicus [1] was 1.51 mL; in the assay with Rattus norvegicus [2], 1.56 mL; in the assay with Rattus norvegicus [3], 1.29 mL; in the assay on Rattus norvegicus [4], 1.34 mL; with Rattus norvegicus [5], 1.51 mL. In addition, the inhibition in vivo at 20 mg/kg in the assay with Rattus norvegicus [6] came to 21.6%; with Rattus norvegicus [7] it was 17.9%; with Rattus norvegicus [8], 20.9%; in the assay on Rattus norvegicus [9], 6.94%.
In the case of `O=C(O)CCC1=C(c2ccc(F)cc2)NC(=S)NC1c1ccco1` (stereo not given), the Activity with Rattus norvegicus [1] worked out at 1.45 mL; in the assay on Rattus norvegicus [2] it was 1.63 mL; in the assay on Rattus norvegicus [3], 1.57 mL; in the assay with Rattus norvegicus [4], 1.56 mL; in the assay with Rattus norvegicus [5], 1.48 mL. Further, the inhibition in vivo at 20 mg/kg in the assay with Rattus norvegicus [6] came to 24.7%; in the assay with Rattus norvegicus [7], 14.2%; with Rattus norvegicus [8] it was 3.68%.
For `O=C(O)CCC1=C(c2ccccc2)NC(=S)NC1c1ccccc1O` (stereo not given), the Activity was determined as 1.29 mL with Rattus norvegicus [1]; 1.36 mL with Rattus norvegicus [2]; 1.42 mL in the assay on Rattus norvegicus [3]; 1.49 mL with Rattus norvegicus [4]; 1.36 mL in the assay with Rattus norvegicus [5]. The inhibition in vivo at 20 mg/kg is 33% with Rattus norvegicus [6], 28.6% in the assay on Rattus norvegicus [7], 12.9% with Rattus norvegicus [8] and 2.15% in the assay on Rattus norvegicus [10].
On to `O=C(O)CCC1=C(c2ccc(Cl)cc2)NC(=S)NC1c1ccccc1O` (stereo not given), for which the Activity amounted to 1.74 mL in the assay on Rattus norvegicus [1]; 1.62 mL in the assay on Rattus norvegicus [2]; 1.61 mL in the assay with Rattus norvegicus [3]; 1.58 mL in the assay on Rattus norvegicus [4]; 1.46 mL in the assay on Rattus norvegicus [5]. Also, the inhibition in vivo at 20 mg/kg with Rattus norvegicus [6] was 9.61%; in the assay with Rattus norvegicus [7], 14.7%; in the assay with Rattus norvegicus [8], 1.22%.
Consider `O=C(O)CCC1=C(c2ccc(Cl)cc2)NC(=S)NC1c1ccco1` (stereo not given), for which the Activity in the assay on Rattus norvegicus [1] was 1.34 mL; in the assay with Rattus norvegicus [2], 1.56 mL; with Rattus norvegicus [3] it was 1.54 mL; in the assay with Rattus norvegicus [4] it was 1.47 mL; in the assay with Rattus norvegicus [5] it was 1.39 mL. Also, the inhibition in vivo at 20 mg/kg in the assay on Rattus norvegicus [6] was 30.4%; in the assay on Rattus norvegicus [7], 17.9%; with Rattus norvegicus [8], 5.52%.
In the case of `COc1cc(C2NC(=S)NC(c3ccc(C)cc3)=C2CCC(=O)O)cc(OC)c1OC` (stereo not given), the Activity is 1.53 mL in the assay with Rattus norvegicus [1]; 1.63 mL in the assay on Rattus norvegicus [2]; 1.37 mL in the assay with Rattus norvegicus [3]; 1.44 mL in the assay with Rattus norvegicus [4]; 1.54 mL in the assay on Rattus norvegicus [5]. The inhibition in vivo at 20 mg/kg with Rattus norvegicus [6] is 20.5%; in the assay on Rattus norvegicus [7], 14.2%; in the assay with Rattus norvegicus [8], 15.9%.
Consider `COc1ccc(C2=C(CCC(=O)O)C(c3ccccc3O)NC(=S)N2)cc1` (stereo not given), for which the Activity came to 1.38 mL in the assay on Rattus norvegicus [1]; 1.39 mL with Rattus norvegicus [2]; 1.29 mL in the assay with Rattus norvegicus [3]; 1.33 mL with Rattus norvegicus [4]; 1.2 mL in the assay with Rattus norvegicus [5]. Also, the inhibition in vivo at 20 mg/kg in the assay on Rattus norvegicus [6] is 28.3%; in the assay on Rattus norvegicus [7], 27%; in the assay on Rattus norvegicus [8] it was 20.9%; in the assay on Rattus norvegicus [9] it was 7.63%; in the assay on Rattus norvegicus [10], 13.7%.
For the molecule `O=C(O)CCC1=C(c2ccc(Cl)cc2)NC(=S)NC1c1ccccn1` (stereo not given), the Activity in the assay on Rattus norvegicus [1] worked out at 1.5 mL; with Rattus norvegicus [2], 1.49 mL; with Rattus norvegicus [3], 1.54 mL; in the assay with Rattus norvegicus [4], 1.6 mL; in the assay with Rattus norvegicus [5] it was 1.3 mL. In addition, the inhibition in vivo at 20 mg/kg in the assay with Rattus norvegicus [6] stood at 22.1%; in the assay on Rattus norvegicus [7], 21.8%; in the assay on Rattus norvegicus [8], 5.52%; with Rattus norvegicus [10], 6.47%.
As to `O=C(O)CCC1=C(c2ccccc2)NC(=S)NC1c1ccco1` (stereo not given), the Activity in the assay on Rattus norvegicus [1] came to 1.37 mL; with Rattus norvegicus [2], 1.49 mL; in the assay on Rattus norvegicus [3] it was 1.47 mL; in the assay with Rattus norvegicus [4], 1.36 mL; with Rattus norvegicus [5], 1.16 mL. Also, the inhibition in vivo at 20 mg/kg in the assay with Rattus norvegicus [6] came to 28.8%; with Rattus norvegicus [7], 21.8%; with Rattus norvegicus [8], 9.81%; with Rattus norvegicus [9], 5.55%; with Rattus norvegicus [10], 16.5%.
